Here are results for 1 compound from patent US11739122B2, “Glycopeptide antibiotic compounds, methods for producing the same, and uses thereof” (Academia Sinica, priority 2019, dated 2023).

Series [1] relates to MRSA ATCC 700787. The experiment in a line: Minimal bactericidal concentration (MBC). The class given is cell-based, Staphylococcus aureus. As to the method: Minimal Bactericidal Concentration (MBC) Determination
The MBC test is an extension of the MIC examination. MBC was determined by performing subcultures on antibiotic-free agar from both the well where there was no visible growth at the MIC of a tested antibiotic and from the positive control well (with inoculum but without compounds). The plates were incubated at 37° C. for 18-24 hours. The MBC was taken as the lowest concentration of the test compound that results in more than 99.9% reduction of viable bacteria. If MBC was one or two dilutions above a given MIC value (MBC/MIC ratio was less than or equal to four), the antibiotic was considered bactericidal against the test organism.

Series [2] has as its system HEK293T cells. The experiment in a line: Alamar Blue cell viability assay. The class given is cell-based, human. The conditions noted are these: up to 100 μgmL^−1; 2 and 24 h.
Series [3] deals with A. baumannii ATCC 19606. Briefly: MIC, broth microdilution. It is filed as cell-based, Acinetobacter baumannii. An outline of the steps: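 No visible growth defines the MIC. Plates are incubated 18-24 h at 37° C using a broth inoculum set near 1×10^8 CFU mL^−1.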
A general note: Broth dilution looks for growth in wells or tubes with falling amounts of substance.

For series [4], the system named is MRSA ATCC 700787. Briefly: Thin-section TEM, cell wall morphology. It is filed as cell-based, Staphylococcus aureus. How it is done: (§1) Thin-Section Transmission Electron Microscopy (TEM)
(§2) An overnight cultured MRSA ATCC 700787, VRE ATCC 700221 or A. baumannii ATCC 19606 was individually sub-cultured into a fresh medium. Bacteria at the exponential phase were treated with a given test compound at a concentration of 4×MIC for 1-4 hour at 37° C. and followed by wash and resuspension in PBS. Bacteria cells for the TEM analysis were prepared as follows: Cells were fixed with 2.5% glutaraldehyde for 30 minutes. After the fixation, cells were washed twice with PBS and fixed with 1% osmium tetraoxide for another 30 minutes. All the buffer was removed with distilled water. The cells were then stained with 1% uranyl acetate and dehydrated with a graded ethanol solution. Cells were embedded in resin. Finally, each sample was cut into thin slices of approximately 90 nm with a glass knife and stained with uranyl acetate. The images of bacterial morphological were recorded.
The cell wall/membrane apparently is the targets, while the extent of damage depends on what compound imposes on the strain. […] Cell wall thickening has been a common phenotype in clinical MRSA isolates, which may well be a phenotypic determinant for VRSA. The systemic cell-wall damage may account for the cell-wall biosynthesis crippled all over the cell surface in cell-wall thickening strains, thus leading cells to lysis as a result of the osmotic pressure of cytoplasm.

Series [5] has as its system VRE ATCC 700221 (vanA type). The experiment in a line: Thin-section TEM, cell wall morphology. It is filed as cell-based, enterococci. The following applies: VRE ATCC700221, vanA type. As to the method:
as §1, §2
The cell wall was almost intact but interspersed with holes, where cell fluids outflew leading cells to death. In general, VRE was immune to compound 1 or 2 (>256 μgmL^−1), median sensitive to compound 14 (32 μgmL^−1), but highly sensitive to compound 28 (4 μgmL^−1). […]

Values after ≈ are worked out from the molar mass of the structure shown.

Usually MBC stands for the lowest tested concentration that kills the bacteria rather than only halting them. Higher therefore signals less potent killing. The term MIC denotes the smallest concentration in the dilution series that meets the test's criterion for growth inhibition. On to `CCCCCCCC(=O)N[C@H]1[C@H](O[C@@H]2c3ccc(c(Cl)c3)Oc3cc4cc(c3O)Oc3ccc(cc3Cl)C[C@H]3NC(=O)[C@H](N)c5ccc(O)c(c5)Oc5cc(O)cc(c5)[C@H](NC3=O)C(=O)N[C@H]4C(=O)N[C@H]3C(=O)N[C@@H]2C(=O)N[C@H](C(=O)O)c2cc(O)cc(O)c2-c2cc3ccc2O)O[C@H](CO)[C@@H](O)[C@@H]1O` [Compound 14, r6,N-octyl-Glc Tei], for which the minimum bactericidal concentration (MBC) in series [1] was 0.063 µg/mL (≈ 0.0424 µM). Besides, the MBC/MIC in series [1] is given as 4. The “cytotoxicity to HEK293T cells” value in series [2] is on record as “did not exhibit any observable toxicity”. The minimal inhibitory concentration (MIC) in series [3] (A. baumannii ATCC 19606, Table 3, first figure of cell) stood at 50 µM; in series [3] (A. baumannii ATCC 19606, Table 3, second figure of cell) it was 74.22 µg/mL; in series [3] (AB ATCC 19606, Table 4), 74.22 µg/mL. In addition, the “cell wall morphology by TEM” value in series [4] is “cell wall damage toward full cell lysis”. Moreover, in series [5], the “sensitivity of VRE to compound (concentration)” value came to 32 µg/mL.
